Results published in patent US11725015B2, “Macrocyclic compound and uses thereof” (President and Fellows of Harvard College, priority 2017, dated 2023).

Legend:
[1] = tested on: microtubule dynamics in U2OS-EB3-AG osteosarcoma cell line; experiment: Cell-based microtubule dynamics assay
Description: A cell-based microtubule (MT) dynamics assay was conducted with the U2OS-EB3-AG osteosarcoma cell line, in which the fusion protein of EB3 (a microtubule plus end binding protein) and Azami-Green (EB3-AG) was stably expressed. U2OS-EB3-AG cells were culture in RPMI-1640 medium containing 10% FBS, and penicillin-streptomycin, at 37° C. in a humidified 5% CO2 atmosphere. The MT dynamics in the live cells can be visualized as the movement of the comet-like structure of EB3-AG. U2OS-EB3-AG cells plated on glass-base culture plates (EZVIEW plate, AGC Techno Glass, Japan) were treated with Compound (1) at the indicated concentration and the microtubule dynamics were monitored by time-lapse imaging using fluorescent microscope with 60-fold magnification oil-immersed objective lens (BZ-X710, KEYENCE, Japan). Higher magnification views of the boxed areas were shown in inlets. When treated with Compound (1) at 0.5 nM (IC50 value for antiproliferative activity in U2OS-EB3-AG cells), the comet-like structures became hard to observe at around 60 minutes after the addition of the compound.

[2] = tested on: COLO-704 subcutaneous xenograft; experiment: Antitumor effects in the COLO-704 xenograft model in mice as monotherapy; type: in vivo
Description: A human ovarian cancer cell line COLO-704, which had been cultured in a RPMI-1640 containing 10% FBS, and penicillin-streptomycin, was adjusted to a concentration of 1×10^8 cells/mL with Hanks' Balanced Salt Solution to prepare a cell suspension. The cell suspension was inoculated in a volume of 100 μL into a subcutaneous part of a right flank of nude mice, 5 weeks of ages (CAnN.Cg-Foxn1nu/CrlCrlj, female, Charles River Laboratories Japan Inc.). Nine days after cell inoculation (Day 1), the shortest diameter and the longest diameter of a tumor in each mouse were measured by using an electronic digital caliper (Digimatic™ caliper, Mitutoyo Corporation), so as to calculate the volume of the tumor in accordance with the following calculation formulae: Tumor volume (mm^3)=Longest diameter (mm)×Shortest diameter (mm)×Shortest diameter (mm)/2 Relative tumor volume (RTV)=Tumor volume (day X)/Tumor volume (the first day) Relative body weight (RBW)=Body weight (day X)/Body weight (the first day)
On the basis of the volumes of tumors obtained on Day 1, the mice were grouped such that averages of the tumor volumes were substantially equal among the groups. The experiment was conducted on groups each consisting of six mice. The test compound was dissolved in DMSO and a solution was stored in the freezer before use. Immediately before the administration, the stock solution was diluted with saline. The test compound in saline was intravenously once-weekly administered at 20 μg/kg, 60 μg/kg, or 180 μg/kg for 2 weeks (on Day 1 and Day 8).

[3] = tested on: MES-SA (human uterine sarcoma) xenograft; experiment: Antitumor effects in MES-SA soft tissue sarcoma xenograft model in mice as monotherapy; type: in vivo; settings: 180 μg/kg intravenously on Day 1 and Day 8
Description: A human uterine sarcoma cell line MES-SA, which had been cultured in an RPMI-1640 containing 10% FBS, and penicillin-streptomycin, was adjusted to a concentration of 2×10^8 cells/mL with Hanks' Balanced Salt Solution to prepare a cell suspension, and the suspension was mixed with Geltrex® (Thermo Fisher Scientific Inc., #A1413202) in a ratio of 1:1 to prepare a cell suspension in a concentration of 1×10^8 cells/mL. The cell suspension was inoculated in a volume of 100 μL into a subcutaneous part of a right flank of nude mice, 6 weeks of ages (CAnN.Cg-Foxnlnu/CrlCrlj, female, Charles River Laboratories Japan Inc.). Six days after cell inoculation (Day 1), the shortest diameter and the longest diameter of a tumor in each mouse were measured by using an electronic digital caliper (Digimatic™ caliper, Mitutoyo Corporation), so as to calculate the volume of the tumor in accordance with the following calculation formulae: Tumor volume (mm^3)=Longest diameter (mm)×Shortest diameter (mm)×Shortest diameter (mm)/2 Relative tumor volume (RTV)=Tumor volume (day X)/Tumor volume (the first day)
On the basis of the volumes of tumors obtained on Day 1, the mice were grouped such that averages of the tumor volumes were substantially equal among the groups. The experiment was conducted on groups each consisting of 6 mice. […]

[4] = tested on: OE21 (human squamous cell carcinoma of the esophagus); experiment: In vitro antiproliferative activity, OE21; type: cell-based; settings: OE21, 72 hours
Description: The in vitro antiproliferative assays for Compound (1) were conducted using a small panel of cancer cell lines including human squamous cell carcinoma of the esophagus (OE21, TE-8), human adenocarcinoma of the esophagus (OE33), and human uterine sarcoma (MES-SA, MES-SA-Dx5-Rx1). All cell lines were cultured in RPMI-1640 medium containing 10% FBS, and penicillin-streptomycin (culture medium), in a 5% CO2 incubator (37° C.). To each well of a 96 well plate (Becton, Dickinson and Company, 353219), 75 μL of cell suspension adjusted to a concentration of 4×10^4 cells/mL with the culture medium was added, and the cells were incubated overnight in a 5% CO2 incubator (37° C.). On the next day, 25 μL of Compound (1) in three-fold dilution series suspended in the culture medium was added to each well, and the resultant was incubated for 72 hours in a 5% CO2 incubator (37° C.). Then, cell viability was determined by CellTiter-Glo® Luminescent Cell Viability Assay (Promega) with 2013 EnVision™ Multilabel Reader (Perkin-Elmer, Wellesley, Mass.). Value of the wells containing cells without adding the test compounds was defined as 100% and the value of the wells containing no cells was defined as 0%. […] The P-gp susceptibility was calculated as the ratio of the IC50 value in MES-SA-Dx5-Rx1 cells, which overexpress P-gp, to the IC50 value in MES-SA cells.

C=C1C[C@@H]2CC[C@@]34C[C@H]5O[C@H]6[C@@H](O3)[C@H]3O[C@H](CC[C@@H]3O[C@H]6C5O4)CC(=O)O[C@@H]3[C@@H](C)[C@@H]4O[C@@H]5C[C@]6(C[C@@H]7O[C@]8(C[C@H](C)[C@@H]9O[C@H](CN)[C@H](O)C[C@@H]9O8)C[C@H](C)[C@@H]7O6)O[C@@H]5C[C@@H]4O[C@H]3C[C@H]3O[C@@H](CC[C@@H]1O2)C[C@@H](C)C3=C [Compound (1)]
effect on microtubule (MT) dynamics [1]: had the ability to suppress the MT dynamics | time at which comet-like structures of EB3-AG became hard to observe ([1]; 0.5 nM, after the addition of the compound): around 60 minutes | antitumor effect ([2]; 60 μg/kg intravenously on Day 1 and Day 8): tumor growth delay | antitumor effect ([2]; 180 μg/kg intravenously on Day 1 and Day 8): tumor regression | eradication of xenograft tumors ([2]; 180 μg/kg, on Day 22): completely eradicated the xenograft tumors in all mice | antitumor activity [3]: tumor growth delay | antiproliferative activity [4]: potent antiproliferative agent
